The results in this text go back to patent publication US20190231751A1, “TREATMENT OF FIBROTIC DISORDERS WITH JUN N-TERMINAL KINASE INHIBITORS” (Imago Pharmaceuticals, Inc., priority 2016, published 2019).

The term IC50 denotes the midpoint of a concentration-inhibition curve.

What all share (type): biochemical
One test deals with JNK3 (Homo sapiens, UniProt P53779). Nature of the test: In vitro JNK3 inhibition (Table 1). As to the method: (§1) In vitro assays for the determination of JNK activities are known in the art and exemplary assay formats are described herein.
Chain of JNK3 (P53779 whole entry, species assumed): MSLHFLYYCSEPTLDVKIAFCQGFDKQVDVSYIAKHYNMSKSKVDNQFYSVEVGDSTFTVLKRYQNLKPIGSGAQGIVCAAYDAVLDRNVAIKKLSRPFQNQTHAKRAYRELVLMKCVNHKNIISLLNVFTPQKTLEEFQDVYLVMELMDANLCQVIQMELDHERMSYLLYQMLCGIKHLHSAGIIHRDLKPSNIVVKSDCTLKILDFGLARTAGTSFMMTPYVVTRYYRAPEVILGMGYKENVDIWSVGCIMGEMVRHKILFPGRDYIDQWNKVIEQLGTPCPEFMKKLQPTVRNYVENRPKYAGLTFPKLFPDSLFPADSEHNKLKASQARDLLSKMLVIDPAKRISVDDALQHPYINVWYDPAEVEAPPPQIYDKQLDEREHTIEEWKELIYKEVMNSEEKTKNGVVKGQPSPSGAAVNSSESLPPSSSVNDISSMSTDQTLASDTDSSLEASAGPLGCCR
(§2) IC50 values in Table 1 were determined using the procedures as described in U.S. Pat. No. 8,450,353.

The next test has as its target JNK1 (Homo sapiens, UniProt P45983). As to the kind of experiment: In vitro JNK1 inhibition (Table 1). As for the experimental part: as §1, §2
For a further test, the target named is JNK2 (Homo sapiens, UniProt P45984). Nature of the test: In vitro JNK2 inhibition (Table 1). As for the experimental part: as §1, §2
Chain of JNK2 (P45984 whole entry, species assumed): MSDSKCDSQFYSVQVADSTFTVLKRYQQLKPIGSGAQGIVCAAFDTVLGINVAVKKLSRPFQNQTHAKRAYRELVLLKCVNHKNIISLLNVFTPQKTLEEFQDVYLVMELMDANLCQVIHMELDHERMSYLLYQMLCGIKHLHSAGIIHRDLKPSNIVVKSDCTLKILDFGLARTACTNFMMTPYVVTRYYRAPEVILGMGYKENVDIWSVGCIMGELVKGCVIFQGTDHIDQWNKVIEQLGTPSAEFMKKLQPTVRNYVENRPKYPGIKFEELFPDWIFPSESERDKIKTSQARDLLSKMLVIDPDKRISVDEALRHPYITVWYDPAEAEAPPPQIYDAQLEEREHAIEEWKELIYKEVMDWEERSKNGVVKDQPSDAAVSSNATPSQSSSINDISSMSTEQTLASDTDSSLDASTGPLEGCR

Chain of JNK1 (P45983 whole entry, species assumed): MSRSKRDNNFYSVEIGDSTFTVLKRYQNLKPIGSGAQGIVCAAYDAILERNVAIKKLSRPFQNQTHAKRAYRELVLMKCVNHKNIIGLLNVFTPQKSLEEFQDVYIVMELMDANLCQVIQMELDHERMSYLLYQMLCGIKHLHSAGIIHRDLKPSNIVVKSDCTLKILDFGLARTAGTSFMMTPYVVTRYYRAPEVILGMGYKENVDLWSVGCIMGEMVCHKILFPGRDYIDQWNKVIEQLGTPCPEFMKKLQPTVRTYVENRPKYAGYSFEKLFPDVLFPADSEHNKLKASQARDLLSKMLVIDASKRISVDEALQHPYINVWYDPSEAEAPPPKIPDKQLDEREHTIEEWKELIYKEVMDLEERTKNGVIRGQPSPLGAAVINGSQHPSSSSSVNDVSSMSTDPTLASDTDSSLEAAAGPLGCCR

Consider `O=C(CN1C(=O)CCc2cnccc21)Nc1scc(Br)c1-c1ncn[nH]1` [N-(4-bromo-3-(1H-1,2,4-triazol-5-yl)thiophen-2-yl)-2-(2-oxo-3,4-dihydro-1,6-naphthyridin-1(2H)-yl)acetamide], for which the IC50 against JNK3, at JNK1 and against JNK2 was under 100 nM in each case.
Take `O=C(CN1C(=O)CCc2ccccc21)Nc1scc(Br)c1-c1ncn[nH]1` [N-(4-bromo-3-(1H-1,2,4-triazol-5-yl)thiophen-2-yl)-2-(2-oxo-3,4-dihydroquinolin-1(2H)-yl)acetamide]: the IC50 against JNK3, against JNK1 and against JNK2 was under 100 nM throughout.
Regarding `O=C(Cn1c(=O)ccc2nc(C(F)(F)F)ccc21)Nc1scc(Br)c1-c1ncn[nH]1` [N-(4-bromo-3-(1H-1,2,4-triazol-5-yl)thiophen-2-yl)-2-(2-oxo-6-(trifluoromethyl)-1,5-naphthyridin-1(2H)-yl)acetamide], the IC50 against JNK3, at JNK1 and at JNK2 was under 100 nM each time.
For the compound `O=C(CN1C(=O)CCc2cc(C(F)(F)F)ccc21)Nc1scc(Br)c1-c1ncn[nH]1` [N-(4-bromo-3-(1H-1,2,4-triazol-5-yl)thiophen-2-yl)-2-(2-oxo-6-(trifluoromethyl)-3,4-dihydroquinolin-1(2H)-yl)acetamide], the IC50 against JNK3, against JNK1 and against JNK2 was under 100 nM throughout.
Regarding `O=C(Cn1c(=O)ccc2cnc(C(F)(F)F)cc21)Nc1scc(Br)c1-c1ncn[nH]1` [N-(4-bromo-3-(1H-1,2,4-triazol-5-yl)thiophen-2-yl)-2-(2-oxo-7-(trifluoromethyl)-1,6-naphthyridin-1(2H)-yl)acetamide], the IC50 at JNK3, at JNK1 and against JNK2 was under 100 nM throughout.
Take `O=C(Cn1c(=O)ccc2ccc(C(F)(F)F)cc21)Nc1scc(Br)c1-c1ncn[nH]1` [N-(4-bromo-3-(1H-1,2,4-triazol-5-yl)thiophen-2-yl)-2-(2-oxo-7-(trifluoromethyl)quinolin-1(2H)-yl)acetamide]: the 50% inhibitory concentration (IC50) on JNK3, at JNK1 and against JNK2 was under 100 nM throughout.
For the compound `O=C(Cn1c(=O)ccc2c(F)cccc21)Nc1scc(Br)c1-c1ncn[nH]1` [N-(4-bromo-3-(1H-1,2,4-triazol-5-yl)thiophen-2-yl)-2-(5-fluoro-2-oxoquinolin-1(2H)-yl)acetamide], the IC50 at JNK3, against JNK1 and against JNK2 was under 100 nM each time.
On to `O=C(Cn1c(=O)ccn2nc(C(F)(F)F)cc12)Nc1scc(Br)c1-c1ncn[nH]1` [N-(4-bromo-3-(1H-1,2,4-triazol-5-yl)thiophen-2-yl)-2-(5-oxo-2-(trifluoromethyl)pyrazolo[1,5-a]pyrimidin-4(5H)-yl)acetamide], for which the IC50 at JNK3, against JNK1 and on JNK2 was under 100 nM each time.
As to `O=C(Cn1c(=O)ccn2nccc12)Nc1scc(Br)c1-c1ncn[nH]1` [N-(4-bromo-3-(1H-1,2,4-triazol-5-yl)thiophen-2-yl)-2-(5-oxopyrazolo[1,5-a]pyrimidin-4(5H)-yl)acetamide], the IC50 against JNK3, on JNK1 and against JNK2 was under 100 nM throughout.
As to `O=C(Cn1c(=O)ccc2cc(F)c(F)cc21)Nc1scc(Br)c1-c1ncn[nH]1` [N-(4-bromo-3-(1H-1,2,4-triazol-5-yl)thiophen-2-yl)-2-(6,7-difluoro-2-oxoquinolin-1(2H)-yl)acetamide], the IC50 at JNK3, at JNK1 and against JNK2 was under 100 nM in each case.
For `O=C(Cn1c(=O)ccc2cc(Cl)ccc21)Nc1scc(Br)c1-c1ncn[nH]1` [N-(4-bromo-3-(1H-1,2,4-triazol-5-yl)thiophen-2-yl)-2-(6-chloro-2-oxoquinolin-1(2H)-yl)acetamide], the IC50 at JNK3, against JNK1 and against JNK2 was under 100 nM throughout.
Take `N#Cc1ccc2c(ccc(=O)n2CC(=O)Nc2scc(Br)c2-c2ncn[nH]2)c1` [N-(4-bromo-3-(1H-1,2,4-triazol-5-yl)thiophen-2-yl)-2-(6-cyano-2-oxoquinolin-1(2H)-yl)acetamide]: the IC50 at JNK3, against JNK1 and at JNK2 was under 100 nM throughout.
As to `C#Cc1ccc2c(ccc(=O)n2CC(=O)Nc2scc(Br)c2-c2ncn[nH]2)c1` [N-(4-bromo-3-(1H-1,2,4-triazol-5-yl)thiophen-2-yl)-2-(6-ethynyl-2-oxoquinolin-1(2H)-yl)acetamide], the IC50 against JNK3, on JNK1 and against JNK2 was under 100 nM throughout.
In the case of `O=C(CN1C(=O)CCc2cc(F)ccc21)Nc1scc(Br)c1-c1ncn[nH]1` [N-(4-bromo-3-(1H-1,2,4-triazol-5-yl)thiophen-2-yl)-2-(6-fluoro-2-oxo-3,4-dihydroquinolin-1(2H)-yl)acetamide], the IC50 on JNK3, on JNK1 and against JNK2 was under 100 nM throughout.
Regarding `O=C(Cn1c(=O)ccc2cc(F)ccc21)Nc1scc(Br)c1-c1ncn[nH]1` [N-(4-bromo-3-(1H-1,2,4-triazol-5-yl)thiophen-2-yl)-2-(6-fluoro-2-oxoquinolin-1(2H)-yl)acetamide], the 50% inhibitory concentration (IC50) at JNK3, against JNK1 and against JNK2 was under 100 nM each time.
Take `O=C(Cc1c(F)ccc2ncccc12)Nc1scc(Br)c1-c1ncn[nH]1` [N-(4-bromo-3-(1H-1,2,4-triazol-5-yl)thiophen-2-yl)-2-(6-fluoroquinolin-5-yl)acetamide]: the IC50 against JNK3, at JNK1 and against JNK2 was under 100 nM throughout.
`O=C(CN1C(=O)CCc2ccc(Cl)cc21)Nc1scc(Br)c1-c1ncn[nH]1` [N-(4-bromo-3-(1H-1,2,4-triazol-5-yl)thiophen-2-yl)-2-(7-chloro-2-oxo-3,4-dihydroquinolin-1(2H)-yl)acetamide]: the IC50 against JNK3, against JNK1 and against JNK2 was under 100 nM in each case.
For `N#Cc1ccc2ccc(=O)n(CC(=O)Nc3scc(Br)c3-c3ncn[nH]3)c2c1` [N-(4-bromo-3-(1H-1,2,4-triazol-5-yl)thiophen-2-yl)-2-(7-cyano-2-oxoquinolin-1(2H)-yl)acetamide], the IC50 on JNK3, on JNK1 and against JNK2 was under 100 nM throughout.
For `O=C(Cn1c(=O)ccc2cc(C(F)(F)F)c(F)cc21)Nc1scc(Br)c1-c1ncn[nH]1` [N-(4-bromo-3-(1H-1,2,4-triazol-5-yl)thiophen-2-yl)-2-(7-fluoro-2-oxo-6-(trifluoromethyl)quinolin-1(2H)-yl)acetamide], the IC50 at JNK3, on JNK1 and on JNK2 was under 100 nM throughout.
As for `O=C(Cn1c(=O)ccc2ccc(F)cc21)Nc1scc(Br)c1-c1ncn[nH]1` [N-(4-bromo-3-(1H-1,2,4-triazol-5-yl)thiophen-2-yl)-2-(7-fluoro-2-oxoquinolin-1(2H)-yl)acetamide], the IC50 against JNK3, against JNK1 and against JNK2 was under 100 nM in each case.
With `O=C(Cc1ccc(F)c2cnccc12)Nc1scc(Br)c1-c1ncn[nH]1` [N-(4-bromo-3-(1H-1,2,4-triazol-5-yl)thiophen-2-yl)-2-(8-fluoroisoquinolin-5-yl)acetamide], the IC50 against JNK3, against JNK1 and against JNK2 was under 100 nM in each case.
On to `O=C(Cc1cccc2cnccc12)Nc1scc(Br)c1-c1ncn[nH]1` [N-(4-bromo-3-(1H-1,2,4-triazol-5-yl)thiophen-2-yl)-2-(isoquinolin-5-yl)acetamide], for which the IC50 at JNK3, at JNK1 and against JNK2 was under 100 nM in each case.
Regarding `O=C(Cc1cccc2ncccc12)Nc1scc(Br)c1-c1ncn[nH]1` [N-(4-bromo-3-(1H-1,2,4-triazol-5-yl)thiophen-2-yl)-2-(quinolin-5-yl)acetamide], the IC50 against JNK3, at JNK1 and on JNK2 was under 100 nM each time.
In the case of `O=C(Cn1c(=O)ccc2cc(C(F)(F)F)ccc21)Nc1scc(Br)c1-n1nccn1` [N-(4-bromo-3-(2H-1,2,3-triazol-2-yl)thiophen-2-yl)-2-(2-oxo-6-(trifluoromethyl)quinolin-1(2H)-yl)acetamide], the figures for the IC50 against JNK3, on JNK1 and against JNK2 were under 100 nM, 100 to 10000 nM and under 100 nM, respectively.
In the case of `O=C(CN1C(=O)CCc2ncccc21)Nc1scc(Br)c1-c1ncco1` [N-(4-bromo-3-(oxazol-2-yl)thiophen-2-yl)-2-(2-oxo-3,4-dihydro-1,5-naphthyridin-1(2H)-yl)acetamide], the IC50 on JNK3, at JNK1 and on JNK2 was under 100 nM throughout.
For `CN(C)CCn1cnc(-c2c(Cl)csc2NC(=O)Cn2c(=O)ccc3cc(C(F)(F)F)ccc32)n1` [N-(4-chloro-3-(1-(2-(dimethylamino)ethyl)-1H-1,2,4-triazol-3-yl)thiophen-2-yl)-2-(2-oxo-6-(trifluoromethyl)quinolin-1(2H)-yl)acetamide], the IC50 at JNK3, on JNK1 and against JNK2 was under 100 nM in each case.
In the case of `CN(C)CCCn1cnc(-c2c(Cl)csc2NC(=O)Cn2c(=O)ccc3cc(C(F)(F)F)ccc32)n1` [N-(4-chloro-3-(1-(3-(dimethylamino)propyl)-1H-1,2,4-triazol-3-yl)thiophen-2-yl)-2-(2-oxo-6-(trifluoromethyl)quinolin-1(2H)-yl)acetamide], the IC50 at JNK3, against JNK1 and on JNK2 was under 100 nM each time.
For the compound `O=C(Cn1c(=O)ccc2cc(C(F)(F)F)ccc21)Nc1scc(Cl)c1-c1ncn(CCCN2CCCC2)n1` [N-(4-chloro-3-(1-(3-(pyrrolidin-1-yl)propyl)-1H-1,2,4-triazol-3-yl)thiophen-2-yl)-2-(2-oxo-6-(trifluoromethyl)quinolin-1(2H)-yl)acetamide], the IC50 on JNK3, on JNK1 and against JNK2 was under 100 nM each time.
